The target in assay [1] is Vascular endothelial growth factor receptor 2 (Homo sapiens, UniProt P35968). The assay can be described thus: Inhibition of VEGFR2 by virtual HTS assay.
The target of another assay is Aurora kinase B (Homo sapiens, UniProt Q96GD4). The assay can be described thus: Inhibition of Aurora B by virtual HTS assay.
The target in assay [2] is Epidermal growth factor receptor (Homo sapiens, UniProt P00533). The assay can be described thus: Inhibition of EGFR by virtual HTS assay.
A further assay addresses T1, Aurora kinase A (Homo sapiens, UniProt O14965).
T1 sequence (O14965 whole entry): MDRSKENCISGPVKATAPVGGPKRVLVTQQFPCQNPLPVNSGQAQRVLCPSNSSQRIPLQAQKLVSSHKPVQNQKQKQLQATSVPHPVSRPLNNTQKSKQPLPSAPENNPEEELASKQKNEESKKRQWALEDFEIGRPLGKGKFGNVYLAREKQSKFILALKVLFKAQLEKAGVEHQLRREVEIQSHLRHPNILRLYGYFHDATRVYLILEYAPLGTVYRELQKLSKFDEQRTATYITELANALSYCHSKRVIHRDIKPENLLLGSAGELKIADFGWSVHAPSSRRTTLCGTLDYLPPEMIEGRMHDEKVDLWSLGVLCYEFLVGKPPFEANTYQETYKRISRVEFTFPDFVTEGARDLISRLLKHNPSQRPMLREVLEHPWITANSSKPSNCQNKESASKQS
The assay can be described thus: Inhibition of Aurora A by virtual HTS assay.

The target of assay [3] is Receptor tyrosine-protein kinase erbB-2 (Homo sapiens, UniProt P04626). The assay can be described thus: Inhibition of ErbB2 by virtual HTS assay.
Sequence of Receptor tyrosine-protein kinase erbB-2 (P04626 whole entry): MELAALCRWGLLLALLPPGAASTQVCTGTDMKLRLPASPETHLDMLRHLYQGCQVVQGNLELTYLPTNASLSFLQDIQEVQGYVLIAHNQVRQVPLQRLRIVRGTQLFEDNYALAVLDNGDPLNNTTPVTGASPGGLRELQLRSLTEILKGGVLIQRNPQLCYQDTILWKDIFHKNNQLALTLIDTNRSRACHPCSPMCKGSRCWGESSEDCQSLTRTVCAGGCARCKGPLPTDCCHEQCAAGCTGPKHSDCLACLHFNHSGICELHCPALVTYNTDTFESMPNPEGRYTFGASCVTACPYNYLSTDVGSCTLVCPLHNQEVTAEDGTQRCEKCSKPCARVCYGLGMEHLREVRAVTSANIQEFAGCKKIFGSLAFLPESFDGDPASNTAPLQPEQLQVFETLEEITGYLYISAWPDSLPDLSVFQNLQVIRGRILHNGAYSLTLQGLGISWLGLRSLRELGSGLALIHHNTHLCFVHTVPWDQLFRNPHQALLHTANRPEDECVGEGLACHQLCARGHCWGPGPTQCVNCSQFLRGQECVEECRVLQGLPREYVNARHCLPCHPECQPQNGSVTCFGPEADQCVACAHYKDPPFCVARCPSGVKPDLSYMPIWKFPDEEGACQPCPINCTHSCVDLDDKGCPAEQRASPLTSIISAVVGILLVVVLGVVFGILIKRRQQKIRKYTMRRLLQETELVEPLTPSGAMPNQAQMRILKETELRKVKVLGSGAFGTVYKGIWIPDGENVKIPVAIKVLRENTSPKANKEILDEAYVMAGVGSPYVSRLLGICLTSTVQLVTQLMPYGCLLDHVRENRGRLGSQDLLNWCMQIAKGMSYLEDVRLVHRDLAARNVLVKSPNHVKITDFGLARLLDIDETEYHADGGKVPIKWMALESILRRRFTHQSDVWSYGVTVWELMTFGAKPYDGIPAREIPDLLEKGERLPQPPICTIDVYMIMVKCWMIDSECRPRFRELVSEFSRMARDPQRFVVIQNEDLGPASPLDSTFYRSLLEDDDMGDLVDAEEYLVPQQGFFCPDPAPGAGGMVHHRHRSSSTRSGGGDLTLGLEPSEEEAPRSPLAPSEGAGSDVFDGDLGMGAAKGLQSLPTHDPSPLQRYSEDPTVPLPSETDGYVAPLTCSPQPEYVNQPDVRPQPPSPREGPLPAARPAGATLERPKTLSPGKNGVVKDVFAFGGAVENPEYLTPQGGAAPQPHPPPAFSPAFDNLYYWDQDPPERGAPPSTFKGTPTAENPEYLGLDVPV
Assay [4] concerns the target Vascular endothelial growth factor receptor 3 (Homo sapiens, UniProt P35916).
Description: Inhibition of VEGFR3 by virtual HTS assay
Another assay concerns the target Insulin receptor (Homo sapiens, UniProt P06213). The assay can be described thus: Inhibition of insulin receptor by virtual HTS assay.
The target in assay [5] is Insulin-like growth factor 1 receptor (Homo sapiens, UniProt P08069). The assay can be described thus: Inhibition of IGF1R by virtual HTS assay.
Sequence of Insulin-like growth factor 1 receptor (P08069 31-736 limits assumed): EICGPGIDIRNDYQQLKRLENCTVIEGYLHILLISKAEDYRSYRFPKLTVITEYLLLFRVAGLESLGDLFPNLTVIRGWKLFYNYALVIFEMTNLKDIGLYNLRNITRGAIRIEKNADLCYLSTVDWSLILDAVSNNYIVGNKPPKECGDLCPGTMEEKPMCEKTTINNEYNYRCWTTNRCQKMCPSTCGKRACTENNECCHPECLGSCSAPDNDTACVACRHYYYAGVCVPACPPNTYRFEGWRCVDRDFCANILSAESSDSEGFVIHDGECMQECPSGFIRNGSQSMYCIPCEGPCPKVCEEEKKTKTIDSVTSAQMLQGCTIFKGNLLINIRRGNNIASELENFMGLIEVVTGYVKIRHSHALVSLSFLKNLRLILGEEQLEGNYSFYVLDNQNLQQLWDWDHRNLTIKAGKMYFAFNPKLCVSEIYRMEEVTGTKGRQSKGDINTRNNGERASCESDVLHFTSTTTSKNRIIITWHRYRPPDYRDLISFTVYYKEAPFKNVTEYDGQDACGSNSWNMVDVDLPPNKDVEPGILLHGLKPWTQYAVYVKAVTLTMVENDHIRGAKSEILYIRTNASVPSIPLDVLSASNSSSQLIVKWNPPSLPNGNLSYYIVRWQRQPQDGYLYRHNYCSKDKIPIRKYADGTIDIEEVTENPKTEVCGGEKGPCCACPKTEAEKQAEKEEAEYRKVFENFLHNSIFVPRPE
Sequence of Insulin-like growth factor 1 receptor (P08069 741-1367 limits assumed): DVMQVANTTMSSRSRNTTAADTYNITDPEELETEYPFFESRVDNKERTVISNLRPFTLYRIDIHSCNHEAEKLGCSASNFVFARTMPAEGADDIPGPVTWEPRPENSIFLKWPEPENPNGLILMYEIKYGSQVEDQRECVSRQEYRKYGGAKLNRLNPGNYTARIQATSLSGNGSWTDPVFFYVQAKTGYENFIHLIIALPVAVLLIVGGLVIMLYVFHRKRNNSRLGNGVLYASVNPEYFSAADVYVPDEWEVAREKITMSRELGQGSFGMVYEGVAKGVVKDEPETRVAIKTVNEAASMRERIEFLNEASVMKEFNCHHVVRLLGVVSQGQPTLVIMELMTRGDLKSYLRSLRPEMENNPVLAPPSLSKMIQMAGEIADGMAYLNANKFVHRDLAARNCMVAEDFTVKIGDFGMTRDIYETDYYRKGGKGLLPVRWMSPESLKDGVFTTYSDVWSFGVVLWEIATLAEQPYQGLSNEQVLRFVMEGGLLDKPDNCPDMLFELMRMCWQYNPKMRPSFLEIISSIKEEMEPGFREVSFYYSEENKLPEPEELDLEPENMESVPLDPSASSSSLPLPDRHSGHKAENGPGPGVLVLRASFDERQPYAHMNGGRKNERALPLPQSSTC
The target in assay [6] is Proto-oncogene tyrosine-protein kinase Src (Homo sapiens, UniProt P12931). The assay can be described thus: Inhibition of Src by virtual HTS assay.
Sequence of Proto-oncogene tyrosine-protein kinase Src (P12931 2-536 limits assumed): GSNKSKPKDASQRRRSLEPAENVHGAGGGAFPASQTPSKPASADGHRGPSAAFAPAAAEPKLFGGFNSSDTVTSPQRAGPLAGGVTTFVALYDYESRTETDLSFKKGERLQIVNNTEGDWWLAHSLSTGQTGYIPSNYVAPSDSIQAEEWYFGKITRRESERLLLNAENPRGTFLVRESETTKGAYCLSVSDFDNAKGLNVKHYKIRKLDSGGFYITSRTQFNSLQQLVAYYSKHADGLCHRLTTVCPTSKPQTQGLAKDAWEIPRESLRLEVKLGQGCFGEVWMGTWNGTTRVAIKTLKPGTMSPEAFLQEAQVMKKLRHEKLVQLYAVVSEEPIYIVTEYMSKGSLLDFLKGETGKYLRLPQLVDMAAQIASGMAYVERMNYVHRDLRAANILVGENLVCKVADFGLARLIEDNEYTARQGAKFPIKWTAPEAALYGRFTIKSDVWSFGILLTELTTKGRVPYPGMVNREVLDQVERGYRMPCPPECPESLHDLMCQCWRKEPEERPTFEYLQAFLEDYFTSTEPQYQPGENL
The next assay has as its target Angiopoietin-1 receptor (Homo sapiens, UniProt Q02763). The assay can be described thus: Inhibition of TIE2 by virtual HTS assay.
In another assay the target is T2, Ephrin type-B receptor 4 (Homo sapiens, UniProt P54760).
T2 sequence (P54760 whole entry): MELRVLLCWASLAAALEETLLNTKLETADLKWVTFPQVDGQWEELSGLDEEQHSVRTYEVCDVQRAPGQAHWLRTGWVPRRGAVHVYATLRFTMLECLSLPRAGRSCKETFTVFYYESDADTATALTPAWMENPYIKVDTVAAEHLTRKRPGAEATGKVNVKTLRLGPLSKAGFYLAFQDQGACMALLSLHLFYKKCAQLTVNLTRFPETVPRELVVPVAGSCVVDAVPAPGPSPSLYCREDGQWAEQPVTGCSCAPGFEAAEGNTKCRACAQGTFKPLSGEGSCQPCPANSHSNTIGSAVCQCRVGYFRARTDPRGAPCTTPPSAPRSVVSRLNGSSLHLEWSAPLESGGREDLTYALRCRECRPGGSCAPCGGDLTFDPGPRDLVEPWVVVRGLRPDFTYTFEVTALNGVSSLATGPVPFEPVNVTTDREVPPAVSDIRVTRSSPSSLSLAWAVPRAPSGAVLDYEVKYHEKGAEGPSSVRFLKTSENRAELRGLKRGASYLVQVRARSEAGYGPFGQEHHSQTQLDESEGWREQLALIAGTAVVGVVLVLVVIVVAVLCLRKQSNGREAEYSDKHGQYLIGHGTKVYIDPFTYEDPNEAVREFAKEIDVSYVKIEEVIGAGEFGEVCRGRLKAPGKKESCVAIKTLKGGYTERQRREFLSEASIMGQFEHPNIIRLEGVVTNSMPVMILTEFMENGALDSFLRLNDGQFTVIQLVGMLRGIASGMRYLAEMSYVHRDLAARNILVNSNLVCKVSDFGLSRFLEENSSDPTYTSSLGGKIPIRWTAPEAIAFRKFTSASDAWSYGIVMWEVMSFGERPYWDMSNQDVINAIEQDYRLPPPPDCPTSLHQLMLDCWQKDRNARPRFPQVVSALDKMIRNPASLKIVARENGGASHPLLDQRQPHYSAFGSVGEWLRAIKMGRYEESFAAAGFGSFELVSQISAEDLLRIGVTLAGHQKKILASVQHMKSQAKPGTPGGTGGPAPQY
The assay can be described thus: Inhibition of EphB4 by virtual HTS assay.

SMILES strings stand for the structures.

Sequence of Vascular endothelial growth factor receptor 3 (P35916 whole entry): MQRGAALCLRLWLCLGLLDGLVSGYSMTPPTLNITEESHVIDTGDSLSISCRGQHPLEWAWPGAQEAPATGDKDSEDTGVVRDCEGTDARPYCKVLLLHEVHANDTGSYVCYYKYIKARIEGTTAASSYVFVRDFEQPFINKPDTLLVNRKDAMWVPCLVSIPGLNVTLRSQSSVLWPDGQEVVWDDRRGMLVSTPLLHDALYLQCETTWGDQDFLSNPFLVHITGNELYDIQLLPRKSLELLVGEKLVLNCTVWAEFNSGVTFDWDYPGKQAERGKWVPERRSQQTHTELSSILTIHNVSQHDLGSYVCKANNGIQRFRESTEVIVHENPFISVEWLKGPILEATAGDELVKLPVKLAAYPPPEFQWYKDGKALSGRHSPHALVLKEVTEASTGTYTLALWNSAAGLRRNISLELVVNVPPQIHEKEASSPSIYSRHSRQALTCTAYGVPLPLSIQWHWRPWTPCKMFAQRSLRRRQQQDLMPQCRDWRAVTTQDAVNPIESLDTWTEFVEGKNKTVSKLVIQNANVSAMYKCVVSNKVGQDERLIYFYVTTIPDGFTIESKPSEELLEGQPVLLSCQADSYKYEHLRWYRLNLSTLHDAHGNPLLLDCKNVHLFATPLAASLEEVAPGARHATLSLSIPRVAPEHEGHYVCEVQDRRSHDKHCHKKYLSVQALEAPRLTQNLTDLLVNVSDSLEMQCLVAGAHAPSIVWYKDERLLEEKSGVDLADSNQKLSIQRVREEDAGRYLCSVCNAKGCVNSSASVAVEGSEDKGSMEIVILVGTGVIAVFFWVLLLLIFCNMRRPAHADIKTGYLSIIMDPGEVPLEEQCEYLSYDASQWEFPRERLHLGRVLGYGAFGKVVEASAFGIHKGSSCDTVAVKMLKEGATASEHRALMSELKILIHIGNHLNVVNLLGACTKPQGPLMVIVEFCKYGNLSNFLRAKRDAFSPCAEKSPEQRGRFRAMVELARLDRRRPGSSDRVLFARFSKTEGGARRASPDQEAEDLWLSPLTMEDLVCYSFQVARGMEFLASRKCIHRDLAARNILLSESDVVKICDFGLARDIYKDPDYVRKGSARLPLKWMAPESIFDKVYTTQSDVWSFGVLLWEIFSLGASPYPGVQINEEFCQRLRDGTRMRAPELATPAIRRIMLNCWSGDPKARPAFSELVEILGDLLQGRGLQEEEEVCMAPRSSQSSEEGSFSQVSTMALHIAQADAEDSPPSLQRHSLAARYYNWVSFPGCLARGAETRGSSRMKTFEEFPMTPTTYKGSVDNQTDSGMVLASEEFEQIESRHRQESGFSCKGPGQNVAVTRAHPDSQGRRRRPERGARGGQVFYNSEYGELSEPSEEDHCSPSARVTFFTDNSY
Sequence of Aurora kinase B (Q96GD4 whole entry): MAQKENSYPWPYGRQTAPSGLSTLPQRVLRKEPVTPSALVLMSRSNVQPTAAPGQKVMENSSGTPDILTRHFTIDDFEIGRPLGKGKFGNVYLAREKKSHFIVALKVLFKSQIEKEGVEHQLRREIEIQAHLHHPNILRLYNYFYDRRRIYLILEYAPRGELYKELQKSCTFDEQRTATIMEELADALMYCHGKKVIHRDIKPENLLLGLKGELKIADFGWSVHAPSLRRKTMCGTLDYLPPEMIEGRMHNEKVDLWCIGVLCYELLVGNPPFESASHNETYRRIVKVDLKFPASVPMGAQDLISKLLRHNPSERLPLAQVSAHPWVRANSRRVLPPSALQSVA

In general, IC50 refers to the concentration needed to halve the response being measured. Read a high IC50 as weaker potency in that assay. Regarding `CN1CCN(c2ccnc(Nc3ccc(-c4nc5ccccc5s4)cc3)n2)CC1`, the 50% inhibitory concentration (IC50) in [1] was > 10 µM; against Aurora kinase B it was > 10 µM; in assay [2], > 10 µM; against Aurora kinase A, 0.84 µM; in [3], > 10 µM; in assay [4], 5.2 µM. Also, the IC50 against Insulin receptor was > 10 µM.
Consider `Cc1cc(Nc2ccnc(Nc3ccc(-c4nc5ccccc5s4)cc3)n2)n[nH]1`, for which the half-maximal inhibitory concentration (IC50) was > 10 µM in [1]; 7 µM at Aurora kinase B; > 10 µM in assay [2]; 0.37 µM on Aurora kinase A; > 10 µM against Insulin receptor.
As to `COc1cc(Nc2nccc(Nc3cc(C)n[nH]3)n2)ccc1-c1nc2ccccc2s1`, the IC50 is > 10 µM in assay [1]; 3.1 µM at Aurora kinase B; > 10 µM in assay [2]; 0.32 µM at Aurora kinase A; > 10 µM in assay [3]; > 10 µM in assay [4]. In addition, the IC50 against Insulin receptor is > 10 µM.
As for `Cc1cc(Nc2cc(Nc3ccc(-c4nc5ccccc5s4)cc3)ccn2)[nH]n1`, the IC50 in assay [1] is 8.8 µM; against Aurora kinase B, 1.8 µM; in assay [2], > 10 µM; against Aurora kinase A it was 1.3 µM; in assay [3], > 10 µM; in assay [4] it was 6.5 µM. Moreover, the IC50 against Insulin receptor was > 10 µM.
Regarding `CNc1ccnc(Nc2ccc(-c3nc4ccccc4s3)cc2)n1`, half-maximal inhibition against Aurora kinase A (IC50) required 1.5 µM.
With `CN(C)c1ccnc(Nc2ccc(-c3nc4ccccc4s3)cc2)n1`, the IC50 (in assay [1]; against Aurora kinase B; in assay [2]; on Aurora kinase A; at Insulin receptor) was > 10 µM throughout.
`COc1cc(Nc2ncnc3[nH]ccc23)ccc1-c1nc2ccccc2s1`: the IC50 in assay [1] was > 10 µM; in [5], 3.6 µM; at Aurora kinase B it was > 10 µM; in [2], 0.72 µM; in [6], > 10 µM; against Aurora kinase A, > 10 µM. Moreover, the IC50 was 8.6 µM against Angiopoietin-1 receptor, 1.6 µM in assay [3], > 10 µM in [4] and > 10 µM on Insulin receptor.
As for `COc1nc(Nc2ccc(-c3nc4ccccc4s3)cc2)c2cc[nH]c2n1`, the 50% inhibitory concentration (IC50) is 10 µM in [1]; 4.4 µM in [5]; > 10 µM at Aurora kinase B; 6.4 µM in assay [6]; > 10 µM on Aurora kinase A; 8.7 µM against Angiopoietin-1 receptor. Also, the half-maximal inhibitory concentration (IC50) (in assay [3]; in assay [4]; at Insulin receptor) was > 10 µM each time.
As for `CNc1cc(Nc2ccc(-c3nc4ccccc4s3)cc2)ccn1`, the IC50 in [1] is > 10 µM; on Aurora kinase B, > 10 µM; in [2], > 10 µM; at Aurora kinase A, > 10 µM; in [3], > 10 µM; in assay [4], 6 µM. Moreover, the IC50 against Insulin receptor was > 10 µM.
Take `CNC(=O)c1cc(Nc2ccc(-c3nc4ccccc4s3)cc2)ccn1`: the IC50 in assay [1] was 3.6 µM; at Aurora kinase B it was > 10 µM; in assay [2], 2 µM; against Aurora kinase A it was > 10 µM; in assay [3], 1.1 µM; in assay [4] it was > 10 µM. In addition, at Insulin receptor, the half-maximal inhibitory concentration (IC50) was > 10 µM.
`c1ccc2sc(-c3ccc(Nc4ncnc5ccsc45)cc3)nc2c1`: the IC50 in assay [1] is > 10 µM; in [5], > 10 µM; against Aurora kinase B it was 0.72 µM; in assay [2], > 10 µM; in assay [6], > 10 µM; on Aurora kinase A it was 2.8 µM. In addition, the half-inhibitory concentration (IC50) (against Angiopoietin-1 receptor; in assay [3]; in assay [4]; against Insulin receptor) was > 10 µM throughout.
On to `COc1cc2ncnc(Nc3ccc(-c4nc5ccccc5s4)c(OC)c3)c2cc1OC`, for which the IC50 in assay [1] was > 10 µM; in assay [5] it was > 10 µM; on Aurora kinase B, > 10 µM; in [2] it was 0.063 µM; in assay [6], > 10 µM; against Ephrin type-B receptor 4, > 10 µM. Moreover, the IC50 against Aurora kinase A and on Insulin receptor was > 10 µM each time.
Turning to `Clc1cc(Nc2ncnc3ccsc23)ccc1-c1nc2ccccc2s1`, the IC50 (in assay [1]; in [5]; on Aurora kinase B; in assay [2]; in assay [6]; against Aurora kinase A) was > 10 µM each time. For the same compound, the half-maximal inhibitory concentration (IC50) on Angiopoietin-1 receptor is 4.4 µM; in assay [3], > 10 µM; in [4], > 10 µM; against Insulin receptor, > 10 µM.
Turning to `Fc1cc(-c2nc3ccccc3s2)ccc1Nc1ncnc2ccsc12`, the IC50 is > 10 µM in [1]; > 10 µM in assay [5]; 0.29 µM against Aurora kinase B; > 10 µM in assay [2]; > 10 µM in assay [6]; 4 µM against Aurora kinase A. Besides, the IC50 against Angiopoietin-1 receptor was 4.1 µM; in [3], > 10 µM; in assay [4], > 10 µM; on Insulin receptor, > 10 µM.
Take `COc1nc(Nc2ccc(-c3nc4ccccc4s3)c(OC)c2)c2cc[nH]c2n1`: the IC50 in assay [1] is 0.96 µM; in assay [5] it was 2.9 µM; at Aurora kinase B, > 10 µM; in [2], 5.1 µM; in assay [6], 2.1 µM; against Aurora kinase A, > 10 µM. Moreover, the IC50 against Angiopoietin-1 receptor is 2.5 µM; in assay [3], > 10 µM; in assay [4], 7.7 µM; at Insulin receptor, > 10 µM.
In the case of `COc1cc(Nc2ncnc3nc[nH]c23)ccc1-c1nc2ccccc2s1`, the IC50 was 9.2 µM in [1]; > 10 µM in [5]; > 10 µM against Aurora kinase B; 2.6 µM in assay [2]; > 10 µM in assay [6]; 5.8 µM against Aurora kinase A. For the same compound, the concentration for half-maximal inhibition (IC50) against Angiopoietin-1 receptor was 1.3 µM; in [3], > 10 µM; in assay [4], 3.4 µM; against Insulin receptor, > 10 µM.
Regarding `CNc1nccc(Nc2ccc(-c3nc4ccccc4s3)cc2)n1`, the 50% inhibitory concentration (IC50) in assay [1] was 8.9 µM; against Aurora kinase B, > 10 µM; in assay [2] it was > 10 µM; at Aurora kinase A, > 10 µM; in [3], > 10 µM; in assay [4], 6.9 µM. In addition, inhibition against Insulin receptor was half-maximal at 9.7 µM (IC50).
On to `COc1cc(Nc2ncnc3ccsc23)ccc1-c1nc2ccccc2s1`, for which the IC50 (in [1]; in assay [5]; against Aurora kinase B; in assay [2]; in [6]; against Aurora kinase A) was > 10 µM throughout. Moreover, the IC50 (against Angiopoietin-1 receptor; in [3]; in assay [4]; on Insulin receptor) was > 10 µM throughout.
As to `c1ccc2sc(-c3ccc(Nc4ncnc5nc[nH]c45)cc3)nc2c1`, the concentration for half-maximal inhibition (IC50) is > 10 µM in [1]; > 10 µM in assay [5]; > 10 µM on Aurora kinase B; 7.8 µM in assay [2]; > 10 µM in assay [6]; > 10 µM against Aurora kinase A. Also, the half-maximal inhibitory concentration (IC50) against Insulin receptor is > 10 µM.
As for `c1ccc2sc(-c3ccc(Nc4ncnc5[nH]ccc45)cc3)nc2c1`, the IC50 in [1] was 1.2 µM; in assay [5], 1.5 µM; at Aurora kinase B, > 10 µM; in [2] it was 1.3 µM; in assay [6], 1.5 µM; against Aurora kinase A, 8 µM. The IC50 on Angiopoietin-1 receptor amounted to 1.9 µM; in assay [3], 3.1 µM; in [4], 2.1 µM; on Insulin receptor, 6.95 µM.
Turning to `COc1cc2nc(Nc3cc(C)[nH]n3)nc(Nc3cccc(-c4nc5ccccc5s4)c3)c2cc1OC`, the concentration for half-maximal inhibition (IC50) against Aurora kinase B was > 10 µM; against Aurora kinase A, 5.5 µM; at Angiopoietin-1 receptor, 4.4 µM.

The values above are taken from ChEMBL document CHEMBL1153282, “N-substituted 2'-(aminoaryl)benzothiazoles as kinase inhibitors: hit identification and scaffold hopping” (Bioorg Med Chem Lett, 2009).
